Test results reported in paper PMC5190008, “BO-1055, a novel DNA cross-linking agent with remarkable low myelotoxicity shows potent activity in sarcoma models” (Oncotarget, 2016).

Columns and labels:
[1] = system: Ewing sarcoma patient samples; assay: Alamar Blue cell proliferation assay; type: cell-based, human
Excerpt: Ewing sarcoma cell line A673, Prostate (PC-3, LNCaP, 22RV/HL2), colon (HCT-116), breast (MCF-7, MX-1), small cell lung cancer (H526) and renal (A-498, 786-0) cancer cell lines were purchased from American Type Culture Collection (ATCC, Manassas, VA). Dr. Marc Ladanyi (Department of Pathology, MSKCC) kindly provided the following cell lines: CHLA-9, TC32, RMS559 and TE-381. Dr. Gary Schwartz kindly provided the following osteosarcoma cell lines: OSA, U20S and SAOS. Dr. Constantine Markides, (CHRISTUS Stehlin Foundation for Cancer Research, TX) kindly provided Ewing sarcoma and desmoplastic small round cell tumor (DSRCT) cell lines, including CAR, ZUC, ORA, BER and BOD. Early cultures derived from Ewing sarcoma patient samples, including IARC-EW1, SIM-1 were obtained from the MSKCC monoclonal antibody core facility. […]
AlamarBlue® assay (Invitrogen, Carlsbad, CA, USA) was performed to evaluate anti-proliferative activity of the drugs in cell lines and primary cells. […] The absorbance was measured using the Synergy H1 hybrid multi-mode microplate reader (BioTek, USA). The drug effect was quantified as the percentage of control absorbance at 540 nm and 585 nm. Optical density was determined for 3 replicates per treatment condition and cell proliferation in drug-treated cells was normalized to their respective controls. […]

A673 spheroids = assay: Spheroid assay in 3D culture (methylcellulose); type: cell-based, human
Method: A673 cells were seeded on flat bottom non attachment 24 well plates (1000 cells/well) in triplicate using 1.2 % methylcellulose (Dow Chemical, Waterloo, NY) mixed with 20% FCS and specified concentrations of BO-1055 or 4HC as shown in Figure 1D. Samples were incubated at 37°C / 5 % CO2 and colonies were scored 14 days after plating.

A673 cells = assay: Comet assay; type: cell-based, human; details: A673, 3h
Method: (§1) We used comet assay, which includes single cell gel electrophoresis to assess DNA breaks when exposed to radiation or DNA damaging agents. […] Olive moment (micrometers), a product of tail DNA% and the distance between the centroids of head and tail, is an accurate parameter of DNA damage. […] Gamma-H2AX (γH2AX) phosphorylation is the initial step in DNA damage response following double stranded breaks and is responsible for recruiting DNA repair proteins.
Comet assay was performed according to the protocol described earlier. […] The cells in agarose were transferred to slides coated with normal melting point agarose. The agarose-immobilized cells were lysed in alkaline solution and the agarose trapped DNA was electrophoresed. DNA was stained with ethidium bromide and image acquisition was done immediately. DNA damage quantification was performed using OpenComet v1.3, an open-source software plugin in Image J 1.47v software (NIH, USA) for automated analysis. Olive moment, which is the product of tail DNA% and the distance between the intensity-weighted centroids of head and tail was taken from the output for analysis.

Human MSC = assay: Comet assay; type: cell-based; details: 3h
Method: as §1
Comet assay was performed according to the protocol described earlier. Cells were treated with BO-1055 at 2μM concentration for 3h, or immediately after exposure to 8Gy radiation after which they were isolated and mixed with 1% low melting point agarose in a tube. The cells in agarose were transferred to slides coated with normal melting point agarose. The agarose-immobilized cells were lysed in alkaline solution and the agarose trapped DNA was electrophoresed. DNA was stained with ethidium bromide and image acquisition was done immediately. DNA damage quantification was performed using OpenComet v1.3, an open-source software plugin in Image J 1.47v software (NIH, USA) for automated analysis. Olive moment, which is the product of tail DNA% and the distance between the intensity-weighted centroids of head and tail was taken from the output for analysis.

[2] = system: patient derived Ewing sarcoma xenografts; assay: Combination in vivo study in Ewing sarcoma PDX; set-up: species or system NSG mice

In the case of `CN(C)CCNC(=O)c1cccc(NC(=O)Nc2ccc(N(CCCl)CCCl)cc2)c1` [BO-1055], the IC50 [1] is reported as “submicromolar”, the “concentration giving complete inhibition of spheroids” value (A673 spheroids; A673 spheroids in methylcellulose, scored 14 days after plating) is reported as 0.5 µM and the “fold lower concentration inhibiting A673 spheroids compared to 4-HC” value (A673 spheroids; BO-1055 vs 4-HC) is reported as 10 fold. For the same molecule, the “olive moment relative to radiation (XRT, 8Gy)” value (A673 cells) was “comparable”, the “comet tail size (DNA breaks)” value (A673 cells; increasing concentration) was “increased tail size” and the “olive moment relative to radiation (XRT, 8Gy)” value (Human MSC) was “relatively less”. For the same molecule, the “tumor regression in combination group compared to single drug groups” value ([2]; BO-1055 IV plus Irinotecan IP, 10mg/kg/dose qd x 5 or 5mg/kg/dose qd x 5, day 14) was “significantly greater” and the “weight loss in combination group compared to single drug groups” value ([2]; BO-1055 plus Irinotecan) was “No significant weight loss”.
